Source: US4743611A, “Naphthalenylsulfonylimidazolidinediones and their thioxo analogs useful as aldose reductase inhibitors” (American Home Products Corp., priority 1987, dated 1988)
Like-named read-outs stand apart in the source and are kept apart here. Blank lines part the entries; values can stand above or below the compound they belong to.

Columns and labels:
[1] = molecular target: T1, aldose reductase (Rattus norvegicus, UniProt P07943); assay: lowering of dulcitol accumulation in vivo in lens, sciatic nerve and diaphragm of galactosemic rats; parameters: species or system rat (Sprague-Dawley); conditions: for ED50: po, 96 h
T1 construct: diminish the accumulation of dulcitol in the lenses, sciatic nerves and diaphragm of rats fed galactose; from tissue; host or cells: lens, sciatic nerve and diaphragm of living male Sprague-Dawley rats
From the text: Such experiments are exemplified hereinbelow after the listing of the following general comments pertaining to these experiments:
(a) Four or more groups of six male rats, 50-70 g, Sprague-Dawley strain, were used. The first group, the control group, was fed a mixture of laboratory chow (rodent Laboratory Chow, Purina) and glucose at 20% (w/w %) concentration. The untreated galactosemic group was fed a similar diet in which galactose is substituted for glucose. The third group was fed a diet prepared by mixing a given amount of the test compound with the galactose containing diet. The concentration of galactose in the diet of the treated groups was the same as that for the untreated galactosemic group.
(b) After four days, the animals were killed by decapitation. The eyeballs were removed and punctured with a razor blade; the freed lenses were rolled gently on filter paper and weighed. The sciatic nerves were dissected as completely as possible and weighed. Both tissues when frozen can be kept up to two weeks before being analyzed for dulcitol.
Only two minor reagent changes were made: (a) The rinsing mixture was an aqueous 5% (w/v) trichloroacetic acid solution and (b) the stock solution was prepared by dissolving 25 mg of dulcitol in 100 ml of an aqueous trichloroacetic acid solution. [N.B.: For each experiment the average value found in the tissue from rats fed the glucose diet was subtracted from the individual values found in the corresponding tissue in galactose-fed rats to obtain the amount of polyol accumulated.]
The figures under L, N and D represent the percentage decrease of dulcitol accumulation in the tissues of the lens, sciatic nerve and diaphragm, respectively, for treated rats as compared to untreated rats.

[2] = molecular target: T2, aldose reductase (Bos taurus, UniProt P16116); assay: in vitro inhibition of aldose reductase (enzyme from bovine lens, modified Hayman and Kinoshita procedure); assay type: biochemical; conditions: read-out: % inhibition in vitro
T2 construct: preparation of the enzyme from bovine lens; from tissue; host or cells: bovine lens
From the text: In the present case the procedure of Hayman and Kinoshita was modified in that the final chromatography step was omitted in the preparation of the enzyme from bovine lens.

[3] = diaphragm, 24 mg/kg/day in diet
[4] = rat, diaphragm, read-out: ED50, lowering dulcitol accumulation in vivo, D
[5] = rat, sciatic nerve, read-out: ED50, lowering dulcitol accumulation in vivo, N
[6] = diaphragm, 23 mg/kg/day in diet

inhibition at 10 µM ([2]; 10^-5): 53%
inhibition at 1 µM ([2]; 10^-6): 15%
Compound: O=C1CN(S(=O)(=O)c2ccc(Br)c3ccccc23)C(=S)N1 [Example 3, 1-[(4-bromo-1-naphthalenyl)sulfonyl]-2-thioxo-4-imidazolidinone]

% lowering dulcitol accumulation in vivo, D [1, 3]: 27%
inhibition at 10 µM ([2]; 10^-5): 92%
inhibition at 1 µM ([2]; 10^-6): 81%
inhibition at 0.1 µM ([2]; 10^-7): 31%
Compound: O=C1CN(S(=O)(=O)c2ccc(Br)c3ccccc23)C(=O)N1 [Example 4, 1-[(4-bromo-1-naphthalenyl)sulfonyl]-2,4-imidazolidinedione]

inhibition at 10 µM ([2]; 10^-5): 58%
inhibition at 1 µM ([2]; 10^-6): 12%
Compound: CN(C)c1cccc2c(S(=O)(=O)N3CC(=O)NC3=S)cccc12 [Example 7, 1-[[5-(dimethylamino)-1-naphthalenyl]sulfonyl]-2-thioxo-4-imidazolidinone]

inhibition at 10 µM ([2]; 10^-5): 17%
Compound: O=C1CN(S(=O)(=O)c2cccc3ccccc23)C(=S)N1 [Example 9, 1-[(1-Naphthalenyl)sulfonyl]-2-thioxo-4-imidazolidinone]

% lowering dulcitol accumulation in vivo, D [1, 6]: 31%
% lowering dulcitol accumulation in vivo, L ([1]; lens, 23 mg/kg/day in diet): 10%
inhibition at 10 µM ([2]; 10^-5): 89%
inhibition at 1 µM ([2]; 10^-6): 59%
inhibition at 0.1 µM ([2]; 10^-7): 14%
Compound: O=C1CN(S(=O)(=O)c2cccc3ccccc23)C(=O)N1 [Example 10, 1-[(1-Naphthalenyl)sulfonyl]-2,4-imidazolidinedione]

inhibition at 10 µM ([2]; 10^-5): 10%
inhibition at 1 µM ([2]; 10^-6): 9%
Compound: O=C1CN(S(=O)(=O)c2cccc3cc(Br)ccc23)C(=S)N1 [Example 11, 1-[(6-bromo-1-naphthalenyl)sulfonyl]-2-thioxo-4-imidazolidinone]

inhibition at 10 µM ([2]; 10^-5): 43%
inhibition at 1 µM ([2]; 10^-6): 14%
Compound: O=C1CN(S(=O)(=O)c2cccc3c(Cl)cccc23)C(=S)N1 [Example 15, 1-[(5-chloro-1-naphthalenyl)sulfonyl]-2-thioxo-4-imidazolidinone]

% lowering dulcitol accumulation in vivo, D ([1]; diaphragm, 26 mg/kg/day in diet): 34.0%
% lowering dulcitol accumulation in vivo, L ([1]; lens, 26 mg/kg/day in diet): 0.0%
inhibition at 10 µM ([2]; 10^-5): 58%
inhibition at 1 µM ([2]; 10^-6): 24%
Compound: O=C1CN(S(=O)(=O)c2cccc3c(I)cccc23)C(=S)N1 [Example 17, 1-[(5-iodo-1-naphthalenyl)sulfonyl]-2-thioxo-4-imidazolidinone]

% lowering dulcitol accumulation in vivo, D [1, 3]: 74.0%
% lowering dulcitol accumulation in vivo, L ([1]; lens, 24 mg/kg/day in diet): 33%
inhibition at 0.1 µM ([2]; 10^-7): 59%
Compound: O=C1CN(S(=O)(=O)c2cccc3c(I)cccc23)C(=O)N1 [Example 18, 1-[(5-iodo-1-naphthalenyl)sulfonyl]-2,4-imidazolidinedione]

inhibition at 10 µM ([2]; 10^-5): 13%
inhibition at 1 µM ([2]; 10^-6): 9%
Compound: O=C1CN(S(=O)(=O)c2ccc3c(Br)cccc3c2)C(=S)N1 [Example 19, 1-[(5-Bromo-2-naphthalenyl)sulfonyl]-2-thioxo-4-imidazolidinone]

% lowering dulcitol accumulation in vivo, L ([1]; lens, 24 mg/kg/day in diet): N.S.
inhibition at 10 µM ([2]; 10^-5): 89%
inhibition at 1 µM ([2]; 10^-6): 77%
inhibition at 0.1 µM ([2]; 10^-7): 24%
Compound: O=C1CN(S(=O)(=O)c2ccc3c(Br)cccc3c2)C(=O)N1 [Example 20, 1-[(5-Bromo-2-naphthalenyl)sulfonyl]-2,4-imidazolidinedione]

% lowering dulcitol accumulation in vivo, D ([1]; rat, in vivo, 11 mg/kg/day): 89
Compound: COc1ccc2c(C(=S)N(C)CC(=O)O)cccc2c1C(F)(F)F [tolrestat, N-[[6-methoxy-5-(trifluoromethyl)-1-naphthalenyl]thioxomethyl]-N-methylglycine, reference compound]

The next lines start with the compound.

Compound: O=C1CN(S(=O)(=O)c2cccc3c(Br)cccc23)C(=S)N1 [Example 1, 1-[(5-Bromo-1-naphthalenyl)sulfonyl]-2-thioxo-4-imidazolidinone]
% lowering dulcitol accumulation in vivo, D [1, 3]: 61%
% lowering dulcitol accumulation in vivo, D ([1]; diaphragm, 48 mg/kg/day in diet, p < 0.01): 64%
% lowering dulcitol accumulation in vivo, D ([1]; diaphragm, 109 mg/kg/day in diet): 86%
% lowering dulcitol accumulation in vivo, L ([1]; lens, 24 mg/kg/day in diet): 24%
% lowering dulcitol accumulation in vivo, L ([1]; lens, 48 mg/kg/day in diet, p < 0.01): 40%
% lowering dulcitol accumulation in vivo, L ([1]; lens, 109 mg/kg/day in diet): 49%
ED50 [1, 4]: 18 mg/kg
ED50 ([1]; rat, lens, read-out: ED50, lowering dulcitol accumulation in vivo, L): 99 mg/kg
ED50 [1, 5]: 22 mg/kg
inhibition at 10 µM ([2]; 10^-5): 67%
inhibition at 1 µM ([2]; 10^-6): 17%

Compound: O=C1CN(S(=O)(=O)c2cccc3c(Br)cccc23)C(=O)N1 [Example 2, 1-[(5-Bromo-1-naphthalenyl)sulfonyl]-2,4-imidazolidinedione]
results compared with tolrestat (in words) ([1]; 4.8 and 10.2 mg/kg/day versus tolrestat 4 and 11 mg/kg/day): comparable results
% lowering dulcitol accumulation in vivo, D ([1]; diaphragm, 4.8 mg/kg/day in diet): 58%
% lowering dulcitol accumulation in vivo, D ([1]; diaphragm, 10.2 mg/kg/day in diet): 72%
% lowering dulcitol accumulation in vivo, D ([1]; diaphragm, 20.7 mg/kg/day in diet): 75%
% lowering dulcitol accumulation in vivo, D [1, 6]: 81%
% lowering dulcitol accumulation in vivo, D ([1]; diaphragm, 101 mg/kg/day in diet): 87%
% lowering dulcitol accumulation in vivo, L ([1]; lens, 10.2 mg/kg/day in diet): 18%
% lowering dulcitol accumulation in vivo, L ([1]; lens, 20.7 mg/kg/day in diet): 36%
% lowering dulcitol accumulation in vivo, L ([1]; lens, 23 mg/kg/day in diet): 44%
% lowering dulcitol accumulation in vivo, L ([1]; lens, 101 mg/kg/day in diet): 79%
ED50 [1, 4]: 2 mg/kg
ED50 [1, 5]: 8.1 mg/kg
inhibition at 10 µM ([2]; 10^-5): 93%
inhibition at 1 µM ([2]; 10^-6): 89%
inhibition at 0.1 µM ([2]; 10^-7): 45%

Compound: COc1ccc2c(S(=O)(=O)N3CC(=O)NC3=S)cccc2c1C(F)(F)F [Example 5, 1-[[6-methoxy-5-(trifluoromethyl)-1-naphthalenyl]sulfonyl]-2-thioxo-4-imidazolidinone]
inhibition at 1 µM ([2]; 10^-6): 15%
inhibition at 10 µM [2]: 40%

Compound: COc1ccc2c(S(=O)(=O)N3CC(=O)NC3=O)cccc2c1C(F)(F)F [Example 6, 1-[[6-Methoxy-5-(trifluoromethyl)-1-naphthalenyl]sulfonyl]-2,4-imidazolidinedione]
% lowering dulcitol accumulation in vivo, D ([1]; diaphragm, 86 mg/kg/day in diet, p < 0.01): 87%
% lowering dulcitol accumulation in vivo, L ([1]; lens, 86 mg/kg/day in diet, p < 0.01): 60%
inhibition at 1 µM ([2]; 10^-6): 84%
inhibition at 0.1 µM ([2]; 10^-7): 43%
inhibition at 10 µM [2]: 86%

Compound: CN(C)c1cccc2c(S(=O)(=O)N3CC(=O)NC3=O)cccc12 [Example 8, 1-[[5-(Dimethylamino)-1-naphthalenyl]sulfonyl]-2,4-imidazolidinedione]
inhibition at 1 µM ([2]; 10^-6): 83%
inhibition at 0.1 µM [2]: 38%
inhibition at 10 µM [2]: 96%

Compound: O=C1CN(S(=O)(=O)c2cccc3cc(Br)ccc23)C(=O)N1 [Example 12, 1-[(6-bromo-1-naphthalenyl)sulfonyl]-2,4-imidazolidinedione]
% lowering dulcitol accumulation in vivo, D [1, 3]: 0%
% lowering dulcitol accumulation in vivo, L ([1]; lens, 24 mg/kg/day in diet): 0%
inhibition at 10 µM ([2]; 10^-5): 89%
inhibition at 1 µM ([2]; 10^-6): 70%
inhibition at 0.1 µM ([2]; 10^-7): 23%

Compound: O=C1CN(S(=O)(=O)c2cccc3ccc(Br)cc23)C(=S)N1 [Example 13, 1-[(7-bromo-1-naphthalenyl)sulfonyl]-2-thioxo-4-imidazolidinone]
inhibition at 1 µM ([2]; 10^-6): 16%
inhibition at 10 µM [2]: 46%

Compound: O=C1CN(S(=O)(=O)c2cccc3ccc(Br)cc23)C(=O)N1 [Example 14, 1-[(7-bromo-1-naphthalenyl)sulfonyl]-2,4-imidazolidinedione]
% lowering dulcitol accumulation in vivo, D [1, 6]: 50%
% lowering dulcitol accumulation in vivo, L ([1]; lens, 23 mg/kg/day in diet): 0%
inhibition at 0.1 µM ([2]; 10^-7): 36%
inhibition at 1 µM [2]: 79%
inhibition at 10 µM [2]: 93%

Compound: O=C1CN(S(=O)(=O)c2cccc3c(Cl)cccc23)C(=O)N1 [Example 16, 1-[(5-chloro-1-naphthalenyl)sulfonyl]-2,4-imidazolidinedione]
% lowering dulcitol accumulation in vivo, D ([1]; diaphragm, 25 mg/kg/day in diet): 82%
% lowering dulcitol accumulation in vivo, L ([1]; lens, 25 mg/kg/day in diet): 44%
inhibition at 10 µM ([2]; 10^-5): 85%
inhibition at 0.1 µM ([2]; 10^-7): 36%
inhibition at 1 µM [2]: 79%
